Measurements: the OligoGym collection
HELM strings list units from the 5' end as sugar, base in round brackets, then linkage (d deoxyribose, r ribose, m 2'-O-methyl, p phosphodiester). Strings are as the collection lists them; they lack the last nucleoside at the 3' end of the tested compound. [moe] = 2'-O-(2-methoxyethyl) (MOE); [sp] = phosphorothioate linkage; [m5C] = 5-methylcytosine

Molecular target: ATXN2
Experiment: mouse, dose not given
Conditions: ASO

| Substance | 3 h FOB score |
| --- | --- |
| RNA1{[moe](T)[sp].[moe](G)p.[moe](G)p.[moe](T)p.[moe](G)[sp].d(G)[sp].d(T)[sp].d(G)[sp].d(T)[sp].d(G)[sp].d([m5C])[sp].d(G)[sp].d([m5C])[sp].[moe](A)p.[moe](T)p.[moe](G)[sp].[moe](T)}$$$$ (last 3' nucleoside missing) | 6.25 score 0-7 |
| RNA1{[moe](T)[sp].[moe](G)p.[moe](G)p.[moe](T)p.[moe](G)p.[moe](G)p.d(T)[sp].d(G)[sp].d(T)[sp].d(G)[sp].d([m5C])[sp].d(G)[sp].d([m5C])[sp].d(A)[sp].d(T)[sp].d(G)[sp].[moe](T)p.[moe](A)[sp].[moe](G)}$$$$ (last 3' nucleoside missing) | 7 score 0-7 |
| RNA1{[moe](T)[sp].[moe](G)p.[moe](G)p.[moe](T)p.[moe](G)p.d(G)[sp].d(T)[sp].d(G)[sp].d(T)[sp].d(G)[sp].d([m5C])[sp].d(G)[sp].d([m5C])[sp].d(A)[sp].d(T)[sp].[moe](G)p.[moe](T)p.[moe](A)[sp].[moe](G)}$$$$ (last 3' nucleoside missing) | 6.5 score 0-7 |
| RNA1{[moe](T)[sp].[moe](G)p.[moe](G)p.[moe](T)p.[moe](T)p.d([m5C])[sp].d([m5C])[sp].d(T)[sp].d(T)[sp].d(A)[sp].d([m5C])[sp].d(A)[sp].d(A)[sp].d(T)[sp].d(T)[sp].[moe](A)p.[moe](T)p.[moe]([m5C])[sp].[moe](T)}$$$$ (last 3' nucleoside missing) | 0 score 0-7 |
| RNA1{[moe](T)[sp].[moe](G)p.[moe](G)p.[moe](T)p.d(G)[sp].d(G)[sp].d(T)[sp].d(G)[sp].d(T)[sp].d(G)[sp].d([m5C])[sp].d(G)[sp].d([m5C])[sp].d(A)[sp].[moe](T)p.[moe](G)p.[moe](T)p.[moe](A)[sp].[moe](G)}$$$$ (last 3' nucleoside missing) | 6.75 score 0-7 |
| RNA1{[moe](T)[sp].[moe](G)p.[moe](T)p.[moe](A)[sp].[moe]([m5C])[sp].d(T)[sp].d(T)[sp].d([m5C])[sp].d(A)[sp].d([m5C])[sp].d(A)[sp].d(T)[sp].d(T)[sp].d(T)[sp].d(G)[sp].[moe](G)p.[moe](A)p.[moe](G)[sp].[moe]([m5C])}$$$$ (last 3' nucleoside missing) | 3 score 0-7 |
| RNA1{[moe](T)[sp].[moe](G)p.[moe](T)p.[moe](A)p.[moe]([m5C])[sp].d(T)[sp].d(T)[sp].d(T)[sp].d(T)[sp].d([m5C])[sp].d(T)[sp].d([m5C])[sp].d(A)[sp].[moe](T)p.[moe](G)p.[moe](T)[sp].[moe](G)}$$$$ (last 3' nucleoside missing) | 0 score 0-7 |
| RNA1{[moe](T)[sp].[moe](G)p.[moe](T)p.[moe](A)p.[moe]([m5C])[sp].d(T)[sp].d(T)[sp].d([m5C])[sp].d(A)[sp].d([m5C])[sp].d(A)[sp].d(T)[sp].d(T)[sp].[moe](T)p.[moe](G)p.[moe](G)[sp].[moe](A)}$$$$ (last 3' nucleoside missing) | 3.5 score 0-7 |
| RNA1{[moe](T)[sp].[moe](G)p.[moe](T)p.[moe](A)p.[moe]([m5C])[sp].d(T)[sp].d(T)[sp].d([m5C])[sp].d(A)[sp].d([m5C])[sp].d(A)[sp].d(T)[sp].d(T)[sp].d(T)[sp].d(G)[sp].[moe](G)p.[moe](A)p.[moe](G)[sp].[moe]([m5C])}$$$$ (last 3' nucleoside missing) | 3 score 0-7 |
| RNA1{[moe](T)[sp].[moe](G)p.[moe](T)p.[moe](A)p.[moe]([m5C])p.[moe](T)p.d(T)[sp].d([m5C])[sp].d(A)[sp].d([m5C])[sp].d(A)[sp].d(T)[sp].d(T)[sp].d(T)[sp].d(G)[sp].d(G)[sp].[moe](A)p.[moe](G)[sp].[moe]([m5C])}$$$$ (last 3' nucleoside missing) | 2.5 score 0-7 |
